Measured values from US5728830A, “Farnesyltransferase inhibitor” (Kyowa Hakko Kogyo Co., Ltd., priority 1993, dated 1998).
In brackets after ≈: the same amount, converted by molar mass. Like-named read-outs stand apart in the source and are kept apart here.

Assays:
[1] = target: T1, farnesyltransferase (FTase) (Bos taurus, UniProt P29702+P49355); assay: Farnesyltransferase Inhibitory Activity ([3H]SPA FTase assay, farnesylation of C-terminal peptide of lamin B); type: biochemical; conditions: bovine brain crude enzyme
T1 construct: An extract of minced bovine brain was subjected to column chromatography on DEAE-Sephacel (Pharmacia); from tissue; host or cells: bovine brain
Method: Farnesyltransferase Inhibitory Activity
An extract of minced bovine brain was subjected to column chromatography on DEAE-Sephacel (Pharmacia). The active fraction was concentrated by ultrafiltration and dialyzed against a mixture of 20 mM Tris-HCl (pH 8.0), 50 mM NaCl, […], 1 mM dithiothreitol (DTT), and 0.2 mM phenylmethylsulfonyl fluoride (PMSF). The resulting dialysate was used as a crude enzyme liquid of farnesyltransferase (FTase). The measurement of activity was carried out by means of an FTase [^3 H]SPA enzyme assay kit (Amersham) using the enzyme obtained by the above method.

BALB 3T3/H-ras cells = assay: Anticell Activity (growth inhibition of BALB 3T3 cells transformed by the oncogene H-ras, Giemsa staining); type: cell-based; conditions: Mus musculus, 72 hours, read-out: IC50 Anti-BALB 3T3/H-ras Cell Activity
Method: The anticell activity was measured using BALB 3T3 cells transformed by the oncogene H-ras (hereinafter referred to as BALB 3T3/H-ras cells).
BALB 3T3/H-ras cells were suspended in a DME medium (Nissui) containing 10% bovine fetal serum (hereinafter referred to as medium A) to a cell concentration of 3.0×10^4 cells/ml. Each well of a 96-well microtiter plate was inoculated with 0.1 ml of the cell suspension, and the system was cultured in a CO2 gas incubator at 37° C. for 20 hours. To each well was added 0.1 ml of a sample (test compound) diluted appropriately with medium A, followed by culturing in the CO2 gas incubator at 37° C. for 72 hours. The culture supernatant was removed, and the residue was washed once with physiological saline and treated with 0.1 ml of methanol for 10 minutes to immobilize the cells. The cells were stained with 0.1 ml of a Giemsa staining solution [Giemsa staining stock solution Merck Art9204 (Merck & Co., Inc.):physiological saline=1:10] for 5 minutes. The staining solution was removed, and the residue was washed once with 0.2 ml of water. The pigment was extracted with 0.2 ml of 0.1N hydrochloric acid, and the absorbance at 620 nm was measured with a microplate reader.

[2] = test system: Candida albicans ATCC 10231; assay: Antibacterial Activity, agar dilution method, Candida albicans; type: cell-based
Method: (§1) The antibacterial activity was measured by the agar dilution method using a medium (pH 7) prepared by dissolving 3 g of Bacto-tryptone (Difco), 3 g of meat extract, 1 g of yeast extract, 1 g of glucose, and 16 g of agar in 1 liter of water. The antibacterial activity of Compounds I are expressed in terms of minimum growth inhibitory concentration (MIC).
CA; Candida albicans ATCC 10231

[3] = test system: Enterococcus faecium ATCC 10541; assay: Antibacterial Activity, agar dilution method, Enterococcus faecium; type: cell-based
Method: as §1
EF; Enterococcus faecium ATCC 10541

[4] = test system: Bacillus subtilis No. 10707; assay: Antibacterial Activity, agar dilution method, Bacillus subtilis; type: cell-based
Method: as §1
BS; Bacillus subtilis No. 10707

[5] = test system: isogenic tumor in K-BALB mice; assay: Antitumor Activity on Isogenic Tumor System in K-BALB Mice; type: in vivo; conditions: intraperitoneal, 5 consecutive days from 7th day after transplantation, BALB/c mouse
Method: Antitumor Activity on Isogenic Tumor System in K-BALB Mice
The antitumor activity on an isogenic tumor system in K-BALB mice was measured according to the method described in Proc. Natl. Acad. Sci., 90, 2281 (1993). That is, an isogenic tumor in K-BALB mice was resected from a donor mouse, and a 2×2×2 (8) mm^3 tumor piece was transplanted to the subcutaneous site of the abdomen of a BALB/c mouse by means of a trocar. After the graft survival was confirmed on the 7th day from the transplantation, a test compound was intraperitoneally administered for 5 consecutive days from the same day. The longer diameter and shorter diameter of the tumor were measured with a sliding gauge, and the tumor volume was calculated according to the formula; (longer diameter)×(shorter diameter)^2 /2 [Cancer Chemother. Rep., Part III, 3, 1 (1972)]. The antitumor effect was evaluated in terms of T/C, the ratio of the tumor volume of a test compound-treated group (T) to that of an untreated group (C).

[6] = Candida albicans, ATCC10231, pH 7, read-out: MIC CA
[7] = Enterococcus faecium, ATCC10541, pH 7, read-out: MIC EF
[8] = Bacillus subtilis, NO.10707, pH 7, read-out: MIC BS
[9] = Bacillus subtilis No. 10707, agar dilution, pH 7, read-out: MIC BS
[10] = ATCC10231, Candida albicans ATCC 10231, agar dilution, pH 7, read-out: MIC CA

SMILES: CCOC(=O)SC1C(=O)N(c2ccccc2)C(SC(=O)OCC)C(=O)N1c1ccccc1 (centres unmarked) [Compound I-20]
- IC50 [1]: 45 µM

SMILES: COCN1C(=O)C(SC(C)=O)N(COC)C(=O)C1SC(C)=O (centres unmarked) [Compound I-5]
- IC50 [1]: 8 µM
- IC50 (BALB 3T3/H-ras cells): 0.4 µM

SMILES: O=C1C2SSC(C(=O)N2Cc2ccccc2)N1Cc1ccccc1 [Compound I-19]
- MIC [2, 6]: 2.6 µg/mL (≈ 7.29 µM)
- MIC [3, 7]: 83 µg/mL (≈ 233 µM)
- IC50 [1]: 7 µM
- MIC [4, 8]: 83 µg/mL (≈ 233 µM)

SMILES: COc1ccccc1N1C(=O)C2(CO)SSC1C(=O)N2C (centres unmarked) [Compound I-14]
- IC50 [1]: 6 µM
- MIC [4, 8]: 7.3 µg/mL (≈ 22.4 µM)
- IC50 (BALB 3T3/H-ras cells): 0.3 µM

SMILES: CC(=O)SC1C(=O)N(c2ccccc2)C(SC(C)=O)C(=O)N1C (centres unmarked) [Compound I-1]
- IC50 [1]: 5 µM
- IC50 (BALB 3T3/H-ras cells): 0.2 µM

SMILES: COCN1C(=O)C(SC(=O)Oc2ccccc2)N(COC)C(=O)C1SC(=O)Oc1ccccc1 (centres unmarked) [Compound I-17]
- IC50 [1]: 5 µM
- MIC [4, 9]: 42 µg/mL (≈ 82.9 µM)
- IC50 (BALB 3T3/H-ras cells): 0.3 µM

SMILES: CC(=O)SC1C(=O)N(Cc2ccccc2)C(SC(C)=O)C(=O)N1Cc1ccccc1 (centres unmarked) [Compound I-6]
- MIC [2, 10]: 10 µg/mL (≈ 22.6 µM)
- MIC ([3]; ATCC10541, Enterococcus faecium ATCC 10541, agar dilution, pH 7, read-out: MIC EF): 42 µg/mL (≈ 94.9 µM)
- IC50 [1]: 7 µM
- MIC [4, 9]: 21 µg/mL (≈ 47.5 µM)
- IC50 (BALB 3T3/H-ras cells): 4 µM

SMILES: O=C(Oc1ccccc1)SC1C(=O)N(c2ccccc2)C(SC(=O)Oc2ccccc2)C(=O)N1c1ccccc1 (centres unmarked) [Compound I-10]
- MIC [2, 10]: 42 µg/mL (≈ 73.6 µM)
- IC50 [1]: 25 µM
- IC50 (BALB 3T3/H-ras cells): 1 µM

SMILES: CC(=O)OCC1(SC(C)=O)C(=O)N(c2ccccc2)C(SC(C)=O)C(=O)N1C (centres unmarked) [Compound I-16]
- MIC [3, 7]: 42 µg/mL (≈ 98.9 µM)
- IC50 [1]: 20 µM
- MIC [4, 8]: 5.2 µg/mL (≈ 12.2 µM)
- IC50 (BALB 3T3/H-ras cells): 1.7 µM

SMILES: CN1C(=O)C2SSC1(COCc1ccccc1)C(=O)N2c1ccccc1 (centres unmarked) [Compound I-11]
- MIC [2, 6]: 0.46 µg/mL (≈ 1.19 µM)
- IC50 [1]: 3 µM
- MIC [4, 8]: 7.3 µg/mL (≈ 18.9 µM)
- IC50 (BALB 3T3/H-ras cells): 3 µM

SMILES: CN1C(=O)C2SSC1(CO)C(=O)N2c1ccccc1 (centres unmarked) [Compound I-13]
- MIC [2, 6]: 42 µg/mL (≈ 142 µM)
- MIC [3, 7]: 0.16 µg/mL (≈ 0.54 µM)
- IC50 [1]: 5 µM
- T/C (ratio of tumor volume, treated to untreated) ([5]; 0.75 mg/kg): 0.44
- MIC [4, 8]: 0.041 µg/mL (≈ 0.138 µM)
- IC50 (BALB 3T3/H-ras cells): 0.1 µM

SMILES: COc1ccccc1N1C(=O)C2(CO)SSC1(CO)C(=O)N2C (centres unmarked) [Compound I-15]
- MIC [3, 7]: 1.3 µg/mL (≈ 3.65 µM)
- IC50 [1]: 7 µM
- MIC [4, 8]: 0.33 µg/mL (≈ 0.926 µM)
- IC50 (BALB 3T3/H-ras cells): 0.3 µM

SMILES: CN1C(=O)C2SSC1C(=O)N2c1ccccc1 (centres unmarked) [Compound I-7]
- IC50 [1]: 60 µM
- IC50 (BALB 3T3/H-ras cells): 0.2 µM

SMILES: CN1C(=O)C2(CO)SSC1(CO)C(=O)N2c1ccccc1 (centres unmarked) [Compound I-21]
- MIC [3, 7]: 0.33 µg/mL (≈ 1.01 µM)
- IC50 [1]: 3 µM
- MIC [4, 8]: 21 µg/mL (≈ 64.3 µM)
- IC50 (BALB 3T3/H-ras cells): 0.2 µM

SMILES: COc1ccc(Br)cc1N1C(=O)C(SC(C)=O)N(C)C(=O)C1SC(C)=O (centres unmarked) [Compound I-3]
- IC50 [1]: 9 µM
- IC50 (BALB 3T3/H-ras cells): 1.5 µM

SMILES: CC(=O)SC1C(=O)N(c2ccccc2)C(SC(C)=O)C(=O)N1c1ccccc1 (centres unmarked) [Compound I-4]
- IC50 [1]: 12 µM
- T/C (ratio of tumor volume, treated to untreated) ([5]; 5.0 mg/kg): 0.41
- IC50 (BALB 3T3/H-ras cells): 0.9 µM

SMILES: O=C1C2SSC(C(=O)N2c2ccccc2)N1c1ccccc1 [Compound I-8]
- IC50 [1]: 10 µM
- IC50 (BALB 3T3/H-ras cells): 0.7 µM

SMILES: O=C(SC1C(=O)N(c2ccccc2)C(SC(=O)c2ccccc2)C(=O)N1c1ccccc1)c1ccccc1 (centres unmarked) [Compound I-9]
- IC50 [1]: 9 µM
- IC50 (BALB 3T3/H-ras cells): 3 µM

SMILES: COc1ccccc1N1C(=O)C(SC(C)=O)N(C)C(=O)C1SC(C)=O (centres unmarked) [Compound I-2]
- IC50 [1]: 9 µM
- IC50 (BALB 3T3/H-ras cells): 0.5 µM

SMILES: CN1C(=O)C2(COCc3ccccc3)SSC1(COCc1ccccc1)C(=O)N2c1ccccc1 (centres unmarked) [Compound I-12]
- MIC [2, 6]: 42 µg/mL (≈ 82.9 µM)
- IC50 [1]: 3 µM
- MIC [4, 8]: 42 µg/mL (≈ 82.9 µM)
- IC50 (BALB 3T3/H-ras cells): 1 µM
